One assay concerns the target PIM1 (Homo sapiens (Human), UniProt P11309). As to the kind of experiment: biochemical. The note with it: 10 μM ATP, 90 min, room temperature; read-out: PIM1 LC3K (KI). It is filed as biochemical. A digest of the protocol: (§1)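 Pim-specific fluorescent peptide phosphorylated in 10 mM HEPES pH 7.2, 10 mM MgCl2, 0.01% Tween 20, 2 mM DTT for 90 min at room temperature, then stopped with EDTA. Product and substrate separated by microfluidic mobility shift; Ki derived from substrate conversion.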

Another assay has as its target PIM2 (Homo sapiens (Human), UniProt Q9P1W9). As to the kind of experiment: Pim kinase binding activity, Caliper LC3000 microfluidic peptide phosphorylation assay, PIM2. It is filed as biochemical. The note with it: 10 μM ATP, 90 min, room temperature; read-out: PIM2 LC3K (KI). The essentials: as §1
For the next assay, the target named is PIM3 (Homo sapiens (Human), UniProt Q86V86). As to the kind of experiment: Pim kinase binding activity, Caliper LC3000 microfluidic peptide phosphorylation assay, PIM3. It counts as biochemical. The note with it: 10 μM ATP, 90 min, room temperature; read-out: PIM3 LC3K (KI). The essentials: as §1
For the next assay, the system named is BaF3 PIM1 cells. As to the kind of experiment: In vitro cell proliferation potency assay (Cell Titer Glo), BaF3 PIM1 cells. It is filed as cell-based, murine. The note with it: Mus musculus, BaF3, BaF3 cells transfected with PIM1, incubated overnight; read-out: Prolif BaF3_PIM 1 (IC50). On the procedure:
BaF3 parental line was obtained from the DSMZ repository. BaF3 lines transfected with PIM1 or PIM2 were generated. Mouse IL-3 was purchased from R&D Systems. G418 was purchased from Clontech. Media for BaF3 parental line contained RPMI, 10% FBS, 2 mM L-Glutamine, 2 ng/mL mIL-3. Media for BaF3 PIM1 & 2 lines contained RPMI, 10% FBS, 2 mM L-Glutamine, […]. Media for MM1.S (multiple myeloma cells) line contained RPMI, 10% FBS, 2 mM L-Glutamine.
BaF3, a murine interleukin-3 dependent pro-B cell line, parental cells, BaF3 PIM1 cells, BaF3 PIM2 cells, and MM1.S (multiple myeloma) cells were seeded at 2 k/well, 5 k/well, 5 k/well, and 10 k/well respectively, in a 384-well plate, at 45 μL/well. Test compound was added at 5 μL/well. BaF3 cells (parental and transfected) were incubated overnight, while MM1.S cells were incubated for 72 hours at 37° C., 5% CO2. CELL TITER GLO® Reagent (Promega) was added at 50 μL/well, the plates were incubated for 30 minutes, and their luminescence read on an HT Analyst. IC50/EC50 values for the test compound were calculated.
(In general: In ATP-based viability assays light output follows the ATP content of the culture.)

Chain of PIM1 (P11309 whole entry): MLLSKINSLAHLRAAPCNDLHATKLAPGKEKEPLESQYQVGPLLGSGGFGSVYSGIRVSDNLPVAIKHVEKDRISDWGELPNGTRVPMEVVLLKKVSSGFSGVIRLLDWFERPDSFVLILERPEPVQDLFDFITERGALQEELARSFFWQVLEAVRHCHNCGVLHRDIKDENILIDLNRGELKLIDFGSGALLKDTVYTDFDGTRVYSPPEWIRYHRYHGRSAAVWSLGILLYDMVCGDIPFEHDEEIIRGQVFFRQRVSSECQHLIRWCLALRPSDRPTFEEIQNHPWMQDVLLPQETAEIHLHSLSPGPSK
Chain of PIM2 (Q9P1W9 whole entry): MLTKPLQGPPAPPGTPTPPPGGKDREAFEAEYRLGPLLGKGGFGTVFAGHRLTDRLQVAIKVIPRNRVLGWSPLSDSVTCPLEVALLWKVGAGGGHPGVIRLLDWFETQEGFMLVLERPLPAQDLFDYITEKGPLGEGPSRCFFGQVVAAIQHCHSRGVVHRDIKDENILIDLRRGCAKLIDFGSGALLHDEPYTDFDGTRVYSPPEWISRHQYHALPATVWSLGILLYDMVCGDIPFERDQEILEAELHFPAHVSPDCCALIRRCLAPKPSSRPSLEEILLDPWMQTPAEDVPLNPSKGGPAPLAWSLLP

Broadly, the Ki is the dissociation constant of the complex between target and ligand, obtained from inhibition or displacement. What is called IC50 is the concentration needed to halve the response being measured. On to `CCn1cc(-c2cc3c(cn2)cnn3-c2cccc(N3CCC[C@H](N)C3)n2)cn1` [Compound 133, (3S)-1-[6-[6-(1-ethylpyrazol-4-yl)pyrazolo[4,3-c]pyridin-1-yl]-2-pyridyl]piperidin-3-amine], for which the Ki at PIM1 is 0.867 nM; at PIM2, 4.56 nM; on PIM3 it was 0.155 nM. Also, the IC50 with BaF3 PIM1 cells amounted to 3000 nM.

As for `Cc1cncc(-c2cc3c(cn2)cnn3-c2ccc(C3CC3)c(N3CCCNCC3)n2)n1` [Compound 197, 1-(5-cyclopropyl-6-(1,4-diazepan-1-yl)pyridin-2-yl)-6-(6-methylpyrazin-2-yl)-1H-pyrazolo[4,3-c]pyridine], the Ki at PIM1 stood at 0.055 nM; on PIM2, 1.22 nM; on PIM3, 0.046 nM. In the assay on BaF3 PIM1 cells, the IC50 worked out at 2200 nM.

As for `CCc1cncc(-c2cc3c(cn2)cnn3-c2cccc(N3CCNCC3)n2)c1` [Compound 104, 6-(5-ethylpyridin-3-yl)-1-(6-(piperazin-1-yl)pyridin-2-yl)-1H-pyrazolo[4,3-c]pyridine], the figures for the inhibitory constant (Ki) at PIM1 and on PIM3 were 0.119 nM and 0.077 nM, respectively. Further, the half-inhibitory concentration (IC50) with BaF3 PIM1 cells turned out to be 1500 nM.

For the compound `C[C@@]1(O)CNCCN(c2cccc(-n3ncc4cnc(-c5cnn(CC(F)(F)F)c5)cc43)n2)C1` [Compound 249, (R)-6-Methyl-1-(6-(6-(1-(2,2,2-trifluoroethyl)-1H-pyrazol-4-yl)-1H-pyrazolo[4,3-c]-pyridin-1-yl)pyridin-2-yl)-1,4-diazepan-6-ol], the Ki at PIM1 worked out at 2.16 nM; on PIM2 it was 16.8 nM; on PIM3, 3.09 nM.

For the compound `CO[C@@]1(C)CNCCN(c2cccc(-n3ncc4cnc(-c5cnn(CC(F)(F)F)c5)cc43)n2)C1` [Compound 261, (S)-1-(6-(6-Methoxy-6-methyl-1,4-diazepan-1-yl)pyridin-2-yl)-6-(1-(2,2,2-trifluoroethyl)-1H-pyrazol-4-yl)-1H-pyrazolo[4,3-c]pyridine], the Ki on PIM1 turned out to be 0.763 nM; at PIM2 it was 16.5 nM; at PIM3, 2.74 nM.

Regarding `Cn1cc(-c2cc3c(cn2)cnn3-c2cccc(N3CC(O)C3)n2)cn1` [Compound 253, 1-(6-(6-(1-Methyl-1H-pyrazol-4-yl)-1H-pyrazolo[4,3-c]pyridin-1-yl)pyridin-2-yl)azetidin-3-ol], the Ki on PIM1 came out at 2.52 nM; at PIM2, 45.1 nM; at PIM3, 1.78 nM.

For `Cn1cc(-c2cc3c(cn2)cnn3-c2cccc(N3CC4(CCCCN4)C3)n2)cn1` [Compound 266, 1-(6-(2,5-Diazaspiro[3.5]nonan-2-yl)pyridin-2-yl)-6-(1-methyl-1H-pyrazol-4-yl)-1H-pyrazolo[4,3-c]pyridine], the Ki was determined as 1.1 nM on PIM1, 29.3 nM on PIM2 and 1.21 nM on PIM3.

As to `COc1ccc(-n2ncc3cnc(-c4cnn(CC(F)(F)F)c4)cc32)nc1N1CCNC[C@H](O)C1` [Compound 237, (S)-1-(3-Methoxy-6-(6-(1-(2,2,2-trifluoroethyl)-1H-pyrazol-4-yl)-1H-pyrazolo-[4,3-c]pyridin-1-yl)pyridin-2-yl)-1,4-diazepan-6-ol], the Ki at PIM1 stood at 0.31 nM; on PIM2, 10.1 nM; on PIM3 it was 0.587 nM.

For the compound `CC(C)(C)c1cncc(-c2cc3c(cn2)cnn3-c2cccc(N3CCNCC3)n2)n1` [Compound 170, 6-(6-tert-butylpyrazin-2-yl)-1-(6-piperazin-1-yl-2-pyridyl)pyrazolo[4,3-c]pyridine], the Ki was found to be 20.5 nM on PIM1, 91.2 nM on PIM2 and 8.02 nM at PIM3.

On to `Cn1cc(-c2cc3c(cn2)cnn3-c2cccc(N3CC(N)C3)n2)cn1` [Compound 257, 1-(6-(6-(1-Methyl-1H-pyrazol-4-yl)-1H-pyrazolo[4,3-c]pyridin-1-yl)pyridin-2-yl)azetidin-3-amine], for which the Ki at PIM1 was 0.784 nM; at PIM2, 23.3 nM; at PIM3 it was 0.507 nM.

As for `CC[C@@H]1CN(c2cccc(-n3ncc4cnc(-c5cnn(CC)c5)cc43)n2)CCN1` [Compound 142, (R)-6-(1-ethyl-1H-pyrazol-4-yl)-1-(6-(3-ethylpiperazin-1-yl)pyridin-2-yl)-1H-pyrazolo[4,3-c]pyridine], the Ki at PIM1 worked out at 0.802 nM; at PIM2, 15 nM; at PIM3, 0.458 nM.

For the compound `CCn1cc(-c2cc3c(cn2)cnn3-c2cccc(N3CCNC(C)(C)C3)n2)cn1` [Compound 131, 1-(6-(3,3-dimethylpiperazin-1-yl)pyridin-2-yl)-6-(1-ethyl-1H-pyrazol-4-yl)-1H-pyrazolo[4,3-c]pyridine], the inhibition constant (Ki) on PIM1 was found to be 0.58 nM; on PIM2, 15.9 nM; on PIM3 it was 0.385 nM.

On to `CCn1cc(-c2cc3c(cn2)cnn3-c2cccc(N3CCC(N)CC3)n2)cn1` [Compound 132, 1-(6-(6-(1-ethyl-1H-pyrazol-4-yl)-1H-pyrazolo[4,3-c]pyridin-1-yl)pyridin-2-yl)piperidin-4-amine], for which the Ki was 1.56 nM at PIM1, 19.3 nM on PIM2 and 0.87 nM on PIM3.

For the compound `NCC1CN(c2cccc(-n3ncc4cnc(-c5cnn(CC(F)(F)F)c5)cc43)n2)C1` [Compound 262, (1-(6-(6-(1-(2,2,2-Trifluoroethyl)-1H-pyrazol-4-yl)-1H-pyrazolo[4,3-c]pyridin-1-yl)pyridin-2-yl)azetidin-3-yl)methanamine], the Ki at PIM1 worked out at 1.23 nM; at PIM2 it was 12.5 nM; on PIM3, 1.84 nM.

On to `Cc1ccc(-n2ncc3cnc(-c4cnn(CC(F)(F)F)c4)cc32)nc1N1CCNC[C@H](O)C1` (single isomer, unassigned) [Compound 263], for which the Ki was determined as 0.253 nM at PIM1, 6.51 nM at PIM2 and 0.536 nM on PIM3.

Take `Cn1cc(-c2cc3c(cn2)cnn3-c2cccc(C3(O)CCCNCC3)n2)cn1` (centres unmarked) [Compound 230, 4-(6-(6-(1-Methyl-1H-pyrazol-4-yl)-1H-pyrazolo[4,3-c]pyridin-1-yl)pyridin-2-yl)azepan-4-ol]: the Ki at PIM1 is 5.05 nM; on PIM2 it was 63.3 nM; on PIM3, 4.32 nM.

Turning to `Cc1cncc(-c2cc3c(cn2)cnn3-c2cccc(N3CCCN(C4COC4)CC3)n2)n1` [Compound 240, 6-(6-methylpyrazin-2-yl)-1-(6-(4-(oxetan-3-yl)-1,4-diazepan-1-yl)pyridin-2-yl)-1H-pyrazolo[4,3-c]pyridine], the inhibition constant Ki was 1.51 nM at PIM1, 31.7 nM at PIM2 and 2.03 nM at PIM3.

For the compound `Cn1ncc(-c2cc3c(cn2)cnn3-c2ccccc2F)c1Cl` [Compound 309, 6-(5-chloro-1-methyl-1H-pyrazol-4-yl)-1-(2-fluorophenyl)-1H-pyrazolo[4,3-c]pyridine], the values for the Ki on PIM1, at PIM2 and on PIM3 were 487 nM, 2200 nM and 944 nM, respectively.

In the case of `Cn1cc(-c2cc3c(cn2)cnn3-c2cccc(C3CCCNCC3)n2)cn1` (centres unmarked) [Compound 235, 1-(6-(azepan-4-yl)pyridin-2-yl)-6-(1-methyl-1H-pyrazol-4-yl)-1H-pyrazolo[4,3-c]pyridine], the results for the Ki at PIM1, on PIM2 and at PIM3 were 1.55 nM, 16.5 nM and 0.806 nM, respectively.

With `Cc1cncc(-c2cc3c(cn2)cnn3-c2cccc(N3CC(O)C(O)C3)n2)n1` (centres unmarked) [Compound 232, 1-[6-[6-(6-methylpyrazin-2-yl)pyrazolo[4,3-c]pyridin-1-yl]-2-pyridyl]pyrrolidine-3 4-diol], the Ki came out at 1.19 nM on PIM1, 21.1 nM at PIM2 and 0.83 nM at PIM3.

Consider `OC1CN(c2cccc(-n3ncc4cnc(-c5cnn(CC(F)(F)F)c5)cc43)n2)C1` [Compound 255, 1-(6-(6-(1-(2,2,2-Trifluoroethyl)-1H-pyrazol-4-yl)-1H-pyrazolo[4,3-c]pyridin-1-yl)pyridin-2-yl)azetidin-3-ol], for which the Ki at PIM1 was 0.876 nM; at PIM2, 9.62 nM; on PIM3, 1.58 nM.

Consider `c1cc(N2CCCNCC2)nc(-n2ncc3cnc(-c4cncc(C5COC5)c4)cc32)c1` [Compound 118, 1-(6-(1,4-diazepan-1-yl)pyridin-2-yl)-6-(5-(oxetan-3-yl)pyridin-3-yl)-1H-pyrazolo[4,3-c]pyridine], for which the values for the Ki at PIM1, at PIM2 and at PIM3 were 0.08 nM, 9.04 nM and 0.117 nM, respectively.

Consider `Cc1cncc(-c2cc3c(cn2)cnn3-c2cn(C)c(=O)c(N3CCC[C@H](N)C3)n2)n1` [Compound 241, (S)-3-(3-aminopiperidin-1-yl)-1-methyl-5-(6-(6-methylpyrazin-2-yl)-1H-pyrazolo[4,3-c]pyridin-1-yl)pyrazin-2(1H)-one], for which the Ki on PIM1 was 3.53 nM; at PIM2 it was 45.5 nM; on PIM3, 0.762 nM.

The values above are taken from US9434725B2, “5-azaindazole compounds and methods of use” (priority 2012, dated 2016).
